This note sets out measurements from ChEMBL document CHEMBL1152091, “The synthesis and identification of 4,6-diaminoquinoline derivatives as potent immunostimulants” (1992).

A value given as a limit tells only on which side of the number the result lay.

In the experiment the test system is Mus musculus. The experiment can be described thus: Immunostimulant activity after subcutaneous administration using mouse protection assay. The experiment is classed as functional. As to conditions: sc, read-out: MED.
As for `Nc1ccc2nc(-c3ccccc3)cc(Nc3ccc(Cl)cc3)c2c1`, the minimal effective dose turned out to be 5.6 mg/kg.

With `Cc1cc(Nc2ccc(OCC3CCCCC3)cc2)c2cc(N)ccc2n1`, the minimal effective dose came to 6.25 mg/kg.

On to `CC(=O)Nc1ccc2nc(C)cc(Nc3ccc(OCC4CCCCC4)cc3)c2c1`, for which the minimal effective dose was 12.5 mg/kg.

`Nc1ccc2nccc(Nc3ccc(OCC4CCCCC4)cc3)c2c1`: the minimal effective dose was found to be 12.5 mg/kg.

In the case of `CC(=O)Nc1ccc2nccc(Nc3ccc(OCC4CCCCC4)cc3)c2c1`, the minimal effective dose amounted to 6.25 mg/kg.

Turning to `Nc1ccc2nc(-c3ccccc3)cc(NC3CCCCC3)c2c1`, the minimal effective dose was over 100 mg/kg.

With `Nc1ccc2nc(-c3ccccc3)cc(Nc3ccc(OCC4CCCCC4)cc3)c2c1`, the minimal effective dose came out at 5.6 mg/kg.

Regarding `CCOc1ccc(Nc2ccnc3ccc(N)cc23)cc1`, the minimal effective dose was 6.25 mg/kg.

With `Nc1ccc2nc(-c3ccccc3)cc(Nc3ccc(F)c(F)c3)c2c1`, the minimal effective dose is 6.25 mg/kg.

Regarding `CCCCOc1ccc(Nc2ccnc3ccc(N)cc23)cc1`, the minimal effective dose worked out at 25 mg/kg.

On to `NC(=O)Nc1ccc2nc(-c3ccccc3)cc(Nc3ccc(OCC4CCCCC4)cc3)c2c1`, for which the minimal effective dose is 6.25 mg/kg.

`O=[N+]([O-])c1ccc2nc(-c3ccccc3)cc(Nc3ccc(Cl)cc3)c2c1`: the minimal effective dose is over 50 mg/kg.

For `CS(=O)(=O)Nc1ccc2nc(-c3ccccc3)cc(Nc3ccc(OCC4CCCCC4)cc3)c2c1`, the minimal effective dose was 12.5 mg/kg.

Turning to `Cc1cc(Nc2ccc(F)c(F)c2)c2cc(N)ccc2n1`, the minimal effective dose came to 12.5 mg/kg.

For the compound `Cc1cc(Nc2ccc(OCC3CCCCC3)cc2)c2cc(NC(N)=O)ccc2n1`, the minimal effective dose was determined as 50 mg/kg.

Consider `O=[N+]([O-])c1ccc2nc(-c3ccccc3)cc(Nc3ccc(OCC4CCCCC4)cc3)c2c1`, for which the minimal effective dose is over 50 mg/kg.
